Measured values as given in patent US20250186545A1, “RECOMBINANT PROTEIN FOR ULCERATIVE COLITIS TREATMENT OR PREVENTION AND COMPOSITION FOR ULCERATIVE COLITIS TREATMENT OR PREVENTION CONTAINING THE SAME” (NEXEL CO., LTD., priority 2021, published 2025).

What was measured:
Assay type in all cases: in vivo, C57BL/6 mice
[1] = tested on: DSS-induced colitis model; experiment: Body weight change, study of FIG. 10 (FIG. 12, Tables 4 and 5); conditions: for Change of original weight: AD group
Text: (§1) First, in the case of an animal model for mice in which ulcerative colitis is induced using DSS (Dextran sulfate sodium), bloody stool, weight loss, large intestinal shrinkage, and mucosal ulcers occur, and histologically, damage occurs in large intestinal epithelial cells, so that the intestinal glands of an epithelial layer fall off without inflammation. Further, the amount of f various immune substances in the mucosa increases to cause intestinal inflammation. For this reason, DSS has been widely used to create experimental animal models.
(§2) Specifically, in a DSS-induced colitis model in which 9-week-old female C57BL/6 mice were allowed to freely ingest 2% DSS, an experiment was conducted assuming that one C57BL/6 mouse ingested 5 ml of water containing 2% DSS per day.
(§3) For 7 days, only water containing 2% DSS without any treatment was provided to the mice, and for 5 days after the 7th day, water without 2% DSS was provided, and simultaneously, various comparative substances, including NP-011 protein, were fed at various concentrations by injection into the caudal vein, thereby creating an animal model of inducing ulcerative colitis.
Lastly, as shown in FIG. 6 and FIG. 10, a third experimental group ‘NP-011’ that is an experimental group was supplied with only water containing 2% DSS from day 0 to day 7, was supplied with plain water from day 7 to day 14, […] for 5 days starting from day 7, a total of 5 times.
In addition, increase or decrease in body weight was analyzed on the basis of the original body weight, and the level of weight increase or decrease compared with the positive control group was also analyzed.

[2] = tested on: DSS-induced colitis model; experiment: Histopathology (H&E) of large intestinal mucosa: erosion and epithelial hyperplasia; study of FIG. 10
Text: as §1, §2, §3
(§4) Lastly, as shown in FIG. 6 and FIG. 10, a third experimental group ‘NP-011’ that is an experimental group was supplied with only water containing 2% DSS from day 0 to day 7, was supplied with plain water from day 7 to day 14, and NP-011 recombinant protein of 320 μg/kg was administered once a day for 5 days starting from day 7, a total of 5 times.
Form the results in FIG. 7 and Table 1, it can be confirmed that the degrees of crypt damage, inflammation severity, and inflammation extent in the mucosa were reduced in the order of MFG-E8 160 μg/kg, NP-011 80 μg/kg, and NP-011 320 μg/kg compared with the positive control group after induction of ulcerative colitis, so that the overall degree of damage to the large intestinal mucosa was lowered.
Then, the tissue fixed with 4% paraformaldehyde was subjected to staining (Hematoxylin & Eosin stain) and histopathological examination by KP&T Co., Ltd. The pathological interpretation was made with reference to INHAND. The degrees of erosion and epithelial hyperplasia in the mucosa of the large intestinal tissue were measured for comparison of lesions in the respective animal model groups, and results thereof are shown in FIG. 11 and Table 2. (Reference-J Toxicol Pathol 2016; 29 (1 Suppl)): 1S-124S)

[3] = tested on: DSS-induced colitis model; experiment: Histopathology (H&E) of large intestinal mucosa: crypt damage, inflammation severity, inflammation extent; study of FIG. 6
Text: First, in the case of an animal model for mice in which ulcerative colitis is induced using DSS (Dextran sulfate sodium), bloody stool, weight loss, large intestinal shrinkage, and mucosal ulcers occur, and histologically, damage occurs in large intestinal epithelial cells, so that the intestinal glands of an epithelial layer fall off without inflammation. Further, the amount of f various immune substances in the mucosa increases to cause intestinal inflammation. For this reason, DSS has been widely used to create experimental animal models. Specifically, in a DSS-induced colitis model in which 9-week-old female C57BL/6 mice were allowed to freely ingest 2% DSS, an experiment was conducted assuming that one C57BL/6 mouse ingested 5 ml of water containing 2% DSS per day. For 7 days, only water containing 2% DSS without any treatment was provided to the mice, and for 5 days after the 7th day, water without 2% DSS was provided, and simultaneously, various comparative substances, including NP-011 protein, were fed at various concentrations by injection into the caudal vein, thereby creating an animal model of inducing ulcerative colitis. […] Lastly, as shown in FIG. 6 and FIG. 10, a third experimental group 'NP-011' that is an experimental group was supplied with only water containing 2% DSS from day 0 to day 7, was supplied with plain water from day 7 to day 14, and NP-011 recombinant protein of 320 μg/kg was administered once a day for 5 days starting from day 7, a total of 5 times. First, using the animal models corresponding to the 'NTC' control group, the 'UC CONTROL' control group, the 'MFG-E8' experimental group, the 'NP-011' second experimental group, and the 'NP-011' third experimental group, for each animal model group, the cecum was removed from a large intestinal tissue, and 1 to 2 cm of the proximal and 1 cm of the anus were secured and fixed with 4% paraformaldehyde. Then, the tissue fixed with 4% paraformaldehyde was subjected to staining (Hematoxylin & Eosin stain) and histopathological examination by KP&T Co., Ltd. The pathological interpretation was made with reference to […] (International Harmonization of Nomenclature and Diagnostic Criteria for Lesions) which is an international standard toxicology glossary. The degrees of crypt damage, inflammation severity, and inflammation extent in the mucosa of the large intestinal tissue were measured for comparison in the respective animal model groups, and results thereof are shown in FIG. 7 and Table 1. (Reference-J Toxicol Pathol 2016; 29 (1 Suppl): 1S-[…])

[4] = tested on: DSS-induced colitis model; experiment: Body weight change, study of FIG. 6 (FIG. 8, Table 3); conditions: MFG-E8 160 μg/kg
Text: as §1, §2, §3, §4
First, using the animal models corresponding to the ‘NTC’ control group, the ‘UC CONTROL’ control group, the ‘MFG-E8’ experimental group, the ‘NP-011’ second experimental group, and the ‘NP-011’ third experimental group, body weight was measured daily for each animal model group before drug administration to reduce errors due to the administration.
In addition, increase or decrease in body weight was analyzed compared with the positive control group, and comprehensive results thereof are shown in FIG. 8 and Table 3.

[5] = tested on: DSS-induced colitis model; experiment: Colon length, study of FIG. 6 (FIG. 9); conditions: MFG-E8 160 μg/kg; 3 days after the last administration
Text: as §1, with “models. […]” for “models.”
First, using the animal models corresponding to the \NTC′ control group, the ‘UC CONTROL’ control group, the ‘MFG-E8’ experimental group, the ‘NP-011’ second experimental group, and the ‘NP-011’ third experimental group, the large intestine was extracted separately for each animal model group, the colon length was analyzed, and the results thereof are shown in FIG. 9.
Specifically, to analyze the colon length, each animal model was euthanized by gradual increase in carbon dioxide 3 days after the last administration, and the large intestine was extracted. The extracted large intestine was photographed with a length measuring device (30 cm ruler), and the obtained photograph was quantified using image J.

[6] = MGF-E8 160 μg/kg, once a day x5 from day 7

Adalimumab
Dunnett's multiple comparisons test UC VS AD, Summary (body weight) ([1]; 10 days): ** (** P<0.01) | weight loss ([1]; Adalimumab group, Cyclosporine A group, NP-011 groups (20 to 80 μg/kg)): weight loss was observed | Change of original weight ([1]; Day 1): 0.161 g | Change of original weight ([1]; Day 2): 0.237 g | Change of original weight ([1]; Day 3): 0.438 g | Change of original weight ([1]; Day 4): 0.411 g | Change of original weight ([1]; Day 5): -0.217 g | Change of original weight ([1]; Day 6): -0.846 g | Change of original weight ([1]; Day 7): -1.464 g | Change of original weight ([1]; Day 8): -1.702 g | Change of original weight ([1]; Day 9): -1.683 g | Change of original weight ([1]; Day 10): -1.444 g | Dunnett's multiple comparisons test UC VS AD, Summary (body weight) ([1]; Day 11): **** (**** P<0.0001) | Change of original weight ([1]; Day 11): -0.471 g | Dunnett's multiple comparisons test UC VS AD, Summary (body weight) ([1]; Day 12): **** (**** P<0.0001) | Change of original weight ([1]; Day 12): -0.035 g | Dunnett's multiple comparisons test UC VS AD, Summary (body weight) ([1]; Day 13): **** (**** P<0.0001) | Change of original weight ([1]; Day 13): -0.467 g | Epithelial hyperplasia score ([2]; AD 4 mg/kg): 4.2 | Erosion, mucosa ([2]; AD 4 mg/kg): 0.8 | Group total average ([2]; AD 4 mg/kg, erosion + hyperplasia): 5.0 | degrees of erosion and epidermal hyperplasia in the mucosa of large intestinal tissues ([2]; Adalimumab group): reduced

B1: milk fat globule-EGF factor 8 (protein, UniProt Q08431 24-387, looked up)
Lactadherin: LDICSKNPCHNGGLCEEISQEVRGDVFPSYTCTCLKGYAGNHCETKCVEPLGLENGNIANSQIAASSVRVTFLGLQHWVPELARLNRAGMVNAWTPSSNDDNPWIQVNLLRRMWVTGVVTQGASRLASHEYLKAFKVAYSLNGHEFDFIHDVNKKHKEFVGNWNKNAVHVNLFETPVEAQYVRLYPTSCHTACTLRFELLGCELNGCANPLGLKNNSIPDKQITASSSYKTWGLHLFSWNPSYARLDKQGNFNAWVAGSYGNDQWLQVDLGSSKEVTGIITQGARNFGSVQFVASYKVAYSNDSANWTEYQDPRTGSSKIFPGNWDNHSHKKNLFETPILARYVRILPVAWHNRIALRLELLGC
notes: milk fat globule-EGF factor 8 (MFG-E8) protein, comparator
degrees of crypt damage, inflammation severity, and inflammation extent in the mucosa compared with the positive control group ([3]; MFG-E8 160 μg/kg): reduced | Crypt Damage [3, 6]: 2.9 | Inflammation Extent [3, 6]: 1.2 | Inflammation Severity ([3]; MGF-E8 160 μg/kg, once a day x5 from day 7, caudal vein): 1.1 | Group total average ([3]; MGF-E8 160 μg/kg, sum of severity, extent, crypt damage): 5.2 | Dunnett's multiple comparisons test UC VS MFG-E8, Summary (body weight) ([4]; Day 7): ns | Dunnett's multiple comparisons test UC VS MFG-E8, Summary (body weight) ([4]; Day 8): ns | Dunnett's multiple comparisons test UC VS MFG-E8, Summary (body weight) ([4]; Day 9): ns | Dunnett's multiple comparisons test UC VS MFG-E8, Summary (body weight) ([4]; Day 10): ns | Dunnett's multiple comparisons test UC VS MFG-E8, Summary (body weight) ([4]; Day 11): ns | colon length shrinkage suppression effect compared with the non-administration control group [5]: statistically significant increase in the colon length shrinkage suppression effect
